Structures can show the parent of a compound that is named as a salt.
Tested on: rhinocerase
Details: read-out: Km ^a; 0.1M Tris-HCl pH 7.4, 37°C, 7 min; 100 µg enzyme

Structure (SMILES): Cc1cc(=O)oc2cc(NC(=O)[C@H](CCCNC(=N)N)NC(=O)c3ccccc3)ccc12 [Arg-AMC, Nα-benzoyl-L-arginine 7-amido-4-methylcoumarin.HCl]
- Km: 80 ± 2.02 µM
